Results from PubChem BioAssay (NCI).
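Test compounds were applied to cells in 96-well plates for 48 hours at 5 doses. Here, GI50 denotes the concentration required for 50% inhibition of growth. TGI marks complete inhibition of growth.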

Key:
Test in all cases: NCI tumour cell line growth inhibition, 48 h
BT-549 breast = test system: BT-549 breast
MOLT-4 leukemia = test system: MOLT-4 leukemia
TK-10 renal = test system: TK-10 renal
NCI/ADR-RES ovarian = test system: NCI/ADR-RES ovarian
SK-MEL-2 melanoma = test system: SK-MEL-2 melanoma
CCRF-CEM leukemia = test system: CCRF-CEM leukemia
UO-31 renal = test system: UO-31 renal
RPMI-8226 leukemia = test system: RPMI-8226 leukemia
PC-3 prostate = test system: PC-3 prostate
SF-268 CNS = test system: SF-268 CNS
A549 NSCLC = test system: A549 NSCLC
OVCAR-8 ovarian = test system: OVCAR-8 ovarian
KM12 colon = test system: KM12 colon
CAKI-1 renal = test system: CAKI-1 renal
786-0 renal = test system: 786-0 renal
OVCAR-5 ovarian = test system: OVCAR-5 ovarian
DU-145 prostate = test system: DU-145 prostate
ACHN renal = test system: ACHN renal
SK-MEL-28 melanoma = test system: SK-MEL-28 melanoma
SN12C renal = test system: SN12C renal
UACC-257 melanoma = test system: UACC-257 melanoma
NCI-H460 lung = test system: NCI-H460 lung
HCT-116 colon = test system: HCT-116 colon
RXF 393 renal = test system: RXF 393 renal
NCI-H522 lung = test system: NCI-H522 lung
HCC-2998 colon = test system: HCC-2998 colon
K-562 leukemia = test system: K-562 leukemia
COLO 205 colon = test system: COLO 205 colon
HS 578T breast = test system: HS 578T breast
HOP-92 NSCLC = test system: HOP-92 NSCLC
EKVX NSCLC = test system: EKVX NSCLC
SNB-19 CNS = test system: SNB-19 CNS
OVCAR-4 ovarian = test system: OVCAR-4 ovarian
HT29 colon = test system: HT29 colon
HCT-15 colon = test system: HCT-15 colon
MDA-MB-231 breast = test system: MDA-MB-231 breast
HL-60(TB) leukemia = test system: HL-60(TB) leukemia
IGROV1 ovarian = test system: IGROV1 ovarian
MALME-3M melanoma = test system: MALME-3M melanoma
SK-OV-3 ovarian = test system: SK-OV-3 ovarian
SW-620 colon = test system: SW-620 colon
SR leukemia = test system: SR leukemia
U251 CNS = test system: U251 CNS
SF-295 CNS = test system: SF-295 CNS
SK-MEL-5 melanoma = test system: SK-MEL-5 melanoma
MDA-MB-435 = test system: MDA-MB-435
UACC-62 melanoma = test system: UACC-62 melanoma
NCI-H23 lung = test system: NCI-H23 lung
A498 renal = test system: A498 renal
MCF7 breast = test system: MCF7 breast
SNB-75 CNS = test system: SNB-75 CNS
OVCAR-3 ovarian = test system: OVCAR-3 ovarian
LOX IMVI melanoma = test system: LOX IMVI melanoma
M14 melanoma = test system: M14 melanoma
HOP-62 NSCLC = test system: HOP-62 NSCLC
SF-539 CNS = test system: SF-539 CNS
NCI-H226 lung = test system: NCI-H226 lung

O=S(=O)(Nc1cccc2ccccc12)c1ccc(-c2cnc(C3CC3)o2)cc1
GI50 (BT-549 breast): 4.2 µM | TGI (BT-549 breast): 34.8 µM | GI50 (MOLT-4 leukemia): 101 nM | TGI (MOLT-4 leukemia): > 49.4 µM | GI50 (TK-10 renal): 19.7 µM | TGI (TK-10 renal): > 100 µM | GI50 (NCI/ADR-RES ovarian): 45.5 nM | TGI (NCI/ADR-RES ovarian): 16.7 µM | GI50 (SK-MEL-2 melanoma): 2420 nM | TGI (SK-MEL-2 melanoma): 56.5 µM | GI50 (CCRF-CEM leukemia): 41.2 nM | TGI (CCRF-CEM leukemia): > 100 µM | GI50 (UO-31 renal): 74.5 nM | TGI (UO-31 renal): > 59.2 µM | GI50 (RPMI-8226 leukemia): 53.6 nM | TGI (RPMI-8226 leukemia): 20 µM | GI50 (PC-3 prostate): 47.4 nM | TGI (PC-3 prostate): > 59.9 µM | GI50 (SF-268 CNS): 716 nM | TGI (SF-268 CNS): > 100 µM | GI50 (A549 NSCLC): 141 nM | TGI (A549 NSCLC): > 100 µM | GI50 (OVCAR-8 ovarian): 347 nM | TGI (OVCAR-8 ovarian): > 100 µM | GI50 (KM12 colon): 49.8 nM | TGI (KM12 colon): 14.9 µM | GI50 (CAKI-1 renal): 46.3 nM | TGI (CAKI-1 renal): > 81.7 µM | GI50 (786-0 renal): 71.2 nM | TGI (786-0 renal): > 82.9 µM | GI50 (OVCAR-5 ovarian): 450 nM | TGI (OVCAR-5 ovarian): > 100 µM | GI50 (DU-145 prostate): 144 nM | TGI (DU-145 prostate): > 100 µM | GI50 (ACHN renal): 68.4 nM | TGI (ACHN renal): > 100 µM | GI50 (SK-MEL-28 melanoma): 3.44 µM | TGI (SK-MEL-28 melanoma): > 100 µM | GI50 (SN12C renal): 508 nM | TGI (SN12C renal): > 64.6 µM | GI50 (UACC-257 melanoma): 5.94 µM | TGI (UACC-257 melanoma): 45.7 µM | GI50 (NCI-H460 lung): 43.5 nM | TGI (NCI-H460 lung): 12.6 µM | GI50 (HCT-116 colon): 47.3 nM | TGI (HCT-116 colon): > 74.5 µM | GI50 (RXF 393 renal): 23.7 nM | TGI (RXF 393 renal): 141 nM | GI50 (NCI-H522 lung): 61.2 nM | TGI (NCI-H522 lung): 24 µM | GI50 (HCC-2998 colon): 220 nM | TGI (HCC-2998 colon): 23.9 µM | GI50 (K-562 leukemia): 41.7 nM | TGI (K-562 leukemia): > 73.2 µM | GI50 (COLO 205 colon): 99 nM | TGI (COLO 205 colon): 1350 nM | GI50 (HS 578T breast): 56.3 nM | TGI (HS 578T breast): > 76.1 µM | GI50 (HOP-92 NSCLC): < 19.3 nM | TGI (HOP-92 NSCLC): 4.79 µM | GI50 (EKVX NSCLC): 276 nM | TGI (EKVX NSCLC): > 91.4 µM | GI50 (SNB-19 CNS): 63 nM | TGI (SNB-19 CNS): > 100 µM | GI50 (OVCAR-4 ovarian): 88 nM | TGI (OVCAR-4 ovarian): > 100 µM | GI50 (HT29 colon): 48.4 nM | TGI (HT29 colon): > 68.9 µM | GI50 (HCT-15 colon): 50.5 nM | TGI (HCT-15 colon): > 42 µM | GI50 (MDA-MB-231 breast): 389 nM | TGI (MDA-MB-231 breast): > 48.7 µM | GI50 (HL-60(TB) leukemia): 30.1 nM | TGI (HL-60(TB) leukemia): 388 nM | GI50 (IGROV1 ovarian): 62.6 nM | TGI (IGROV1 ovarian): > 100 µM | GI50 (MALME-3M melanoma): 12.1 µM | TGI (MALME-3M melanoma): 67.3 µM | GI50 (SK-OV-3 ovarian): 2190 nM | TGI (SK-OV-3 ovarian): > 85.8 µM | GI50 (SW-620 colon): 48.9 nM | TGI (SW-620 colon): > 100 µM | GI50 (SR leukemia): 40.2 nM | TGI (SR leukemia): > 34.3 µM | GI50 (U251 CNS): 74.5 nM | TGI (U251 CNS): 97.1 µM | GI50 (SF-295 CNS): 40.1 nM | TGI (SF-295 CNS): 15.6 µM | GI50 (SK-MEL-5 melanoma): 56.8 nM | TGI (SK-MEL-5 melanoma): 3.41 µM | GI50 (MDA-MB-435): 24.3 nM | TGI (MDA-MB-435): 85.4 nM | GI50 (UACC-62 melanoma): 40.2 nM | TGI (UACC-62 melanoma): 23.5 µM | GI50 (NCI-H23 lung): 186 nM | TGI (NCI-H23 lung): 31.5 µM | GI50 (A498 renal): 33.4 nM | TGI (A498 renal): 500 nM | GI50 (MCF7 breast): 32.9 nM | TGI (MCF7 breast): > 57.7 µM | GI50 (SNB-75 CNS): 30.1 nM | TGI (SNB-75 CNS): 82.5 µM | GI50 (OVCAR-3 ovarian): 42.5 nM | TGI (OVCAR-3 ovarian): 15.7 µM | GI50 (LOX IMVI melanoma): 48.8 nM | TGI (LOX IMVI melanoma): 26 µM | GI50 (M14 melanoma): 76.4 nM | TGI (M14 melanoma): > 48.5 µM | GI50 (HOP-62 NSCLC): 99.5 nM | TGI (HOP-62 NSCLC): > 89.7 µM | GI50 (SF-539 CNS): 42.3 nM | TGI (SF-539 CNS): 2070 nM | GI50 (NCI-H226 lung): 106 nM | TGI (NCI-H226 lung): 30.6 µM
